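Growth conditions: 96-well plates. Treatment: test compound, 48 hours, 5 concentrations. Analysis: linear interpolation between bracketing concentrations; unreached endpoints set to highest concentration. The concentration for 50% growth inhibition is given as GI50. TGI denotes the concentration required for complete inhibition of growth.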
Experiments:
Test in all cases: growth of human tumour cells (NCI), 48 h
NCI-H226 lung = system: NCI-H226 lung
NCI-H23 lung = system: NCI-H23 lung
NCI-H460 lung = system: NCI-H460 lung
NCI-H522 lung = system: NCI-H522 lung
NCI/ADR-RES ovarian = system: NCI/ADR-RES ovarian
OVCAR-3 ovarian = system: OVCAR-3 ovarian
OVCAR-4 ovarian = system: OVCAR-4 ovarian
OVCAR-5 ovarian = system: OVCAR-5 ovarian
OVCAR-8 ovarian = system: OVCAR-8 ovarian
RPMI-8226 leukemia = system: RPMI-8226 leukemia
RXF 393 renal = system: RXF 393 renal
SF-268 CNS = system: SF-268 CNS
SF-295 CNS = system: SF-295 CNS
SF-539 CNS = system: SF-539 CNS
SK-MEL-2 melanoma = system: SK-MEL-2 melanoma
SK-MEL-28 melanoma = system: SK-MEL-28 melanoma
SK-MEL-5 melanoma = system: SK-MEL-5 melanoma
SK-OV-3 ovarian = system: SK-OV-3 ovarian
SN12C renal = system: SN12C renal
SNB-19 CNS = system: SNB-19 CNS
SNB-75 CNS = system: SNB-75 CNS
SR leukemia = system: SR leukemia
SW-620 colon = system: SW-620 colon
T-47D breast = system: T-47D breast
TK-10 renal = system: TK-10 renal
U251 CNS = system: U251 CNS
UACC-257 melanoma = system: UACC-257 melanoma
UACC-62 melanoma = system: UACC-62 melanoma
UO-31 renal = system: UO-31 renal

COc1ccc(C2=NC(=O)NC2c2ccc(OC)cc2)cc1 (configuration not stated)
TGI (NCI-H226 lung): > 100 µM | GI50 (NCI-H23 lung): 12.9 µM | TGI (NCI-H23 lung): 78.3 µM | GI50 (NCI-H460 lung): 6.73 µM | TGI (NCI-H460 lung): 51.8 µM | GI50 (NCI-H522 lung): 5.02 µM | TGI (NCI-H522 lung): 60.9 µM | GI50 (NCI/ADR-RES ovarian): 4.38 µM | TGI (NCI/ADR-RES ovarian): 58.5 µM | GI50 (OVCAR-3 ovarian): 10.8 µM | TGI (OVCAR-3 ovarian): 35.3 µM | GI50 (OVCAR-4 ovarian): 31.5 µM | TGI (OVCAR-4 ovarian): > 100 µM | GI50 (OVCAR-5 ovarian): 25.9 µM | TGI (OVCAR-5 ovarian): > 100 µM | GI50 (OVCAR-8 ovarian): 29.6 µM | TGI (OVCAR-8 ovarian): > 100 µM | GI50 (RPMI-8226 leukemia): 7.58 µM | TGI (RPMI-8226 leukemia): 50.6 µM | GI50 (RXF 393 renal): 12 µM | TGI (RXF 393 renal): 51.5 µM | GI50 (SF-268 CNS): 16.5 µM | TGI (SF-268 CNS): > 100 µM | GI50 (SF-295 CNS): 5.35 µM | TGI (SF-295 CNS): 47.5 µM | GI50 (SF-539 CNS): 12.6 µM | TGI (SF-539 CNS): 54.8 µM | GI50 (SK-MEL-2 melanoma): 5.34 µM | TGI (SK-MEL-2 melanoma): 52.8 µM | GI50 (SK-MEL-28 melanoma): 14.9 µM | TGI (SK-MEL-28 melanoma): > 100 µM | GI50 (SK-MEL-5 melanoma): 3.29 µM | TGI (SK-MEL-5 melanoma): 14.2 µM | GI50 (SK-OV-3 ovarian): 19.9 µM | TGI (SK-OV-3 ovarian): > 100 µM | GI50 (SN12C renal): 15.4 µM | TGI (SN12C renal): > 100 µM | GI50 (SNB-19 CNS): 16.9 µM | TGI (SNB-19 CNS): > 100 µM | GI50 (SNB-75 CNS): 5.39 µM | TGI (SNB-75 CNS): 65 µM | GI50 (SR leukemia): 1.63 µM | TGI (SR leukemia): 6.91 µM | GI50 (SW-620 colon): 4.65 µM | TGI (SW-620 colon): > 100 µM | GI50 (T-47D breast): 6.9 µM | TGI (T-47D breast): > 100 µM | GI50 (TK-10 renal): 4.43 µM | TGI (TK-10 renal): 35.9 µM | GI50 (U251 CNS): 7.85 µM | TGI (U251 CNS): > 100 µM | GI50 (UACC-257 melanoma): 36.3 µM | TGI (UACC-257 melanoma): > 100 µM | GI50 (UACC-62 melanoma): 4.15 µM | TGI (UACC-62 melanoma): 32.7 µM | GI50 (UO-31 renal): 20.7 µM | TGI (UO-31 renal): > 100 µM

— PubChem BioAssay (NCI)
